Reference: ChEMBL document CHEMBL1139630, “Structure-activity relationship of N-methyl-bisindolylmaleimide derivatives as cell death inhibitors” (Bioorg Med Chem Lett, 2005)

Tests used:
[1] = target: Ribosomal protein S6 kinase alpha-3 (Homo sapiens) (UniProt P51812); test: Residual activity of Ribosomal S6 kinase 2 (RSK2) at 1 uM
[2] = target: T1, AMP-activated protein kinase, AMPK (Homo sapiens) (UniProt P54646+O43741+P54619+Q9UGJ0+Q9Y478+Q13131+Q9UGI9); test: Residual activity of AMP-activated Protein Kinase (AMPK) at 1 uM
[3] = target: T2, Serine/threonine-protein kinase Chk1 (Homo sapiens) (UniProt O14757); test: Residual activity of Serine/threonine-protein kinase Chk1 (CHK1) at 50 uM
T2 sequence (whole entry): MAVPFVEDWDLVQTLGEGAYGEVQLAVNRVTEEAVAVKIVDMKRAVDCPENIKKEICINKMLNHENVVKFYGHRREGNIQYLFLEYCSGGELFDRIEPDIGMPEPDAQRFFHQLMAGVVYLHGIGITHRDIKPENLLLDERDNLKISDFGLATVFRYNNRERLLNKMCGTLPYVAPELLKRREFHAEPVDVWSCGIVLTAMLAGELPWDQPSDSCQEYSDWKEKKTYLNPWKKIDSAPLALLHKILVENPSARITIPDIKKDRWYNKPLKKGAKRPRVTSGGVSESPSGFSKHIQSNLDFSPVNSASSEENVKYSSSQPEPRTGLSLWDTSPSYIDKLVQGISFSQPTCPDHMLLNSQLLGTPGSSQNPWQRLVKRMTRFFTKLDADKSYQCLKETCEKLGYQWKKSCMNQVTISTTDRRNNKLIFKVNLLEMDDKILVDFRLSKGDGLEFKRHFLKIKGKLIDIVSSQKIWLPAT

[4] = target: Protein kinase C alpha type (Homo sapiens) (UniProt P17252); test: Residual activity of Protein kinase C alpha (PKCalpha) at 50 uM
[5] = target: T3, Ribosomal protein S6 kinase beta-1 (Homo sapiens, UniProt P23443); details: 50 uM
Target sequence in this assay (P23443 whole entry, looked up): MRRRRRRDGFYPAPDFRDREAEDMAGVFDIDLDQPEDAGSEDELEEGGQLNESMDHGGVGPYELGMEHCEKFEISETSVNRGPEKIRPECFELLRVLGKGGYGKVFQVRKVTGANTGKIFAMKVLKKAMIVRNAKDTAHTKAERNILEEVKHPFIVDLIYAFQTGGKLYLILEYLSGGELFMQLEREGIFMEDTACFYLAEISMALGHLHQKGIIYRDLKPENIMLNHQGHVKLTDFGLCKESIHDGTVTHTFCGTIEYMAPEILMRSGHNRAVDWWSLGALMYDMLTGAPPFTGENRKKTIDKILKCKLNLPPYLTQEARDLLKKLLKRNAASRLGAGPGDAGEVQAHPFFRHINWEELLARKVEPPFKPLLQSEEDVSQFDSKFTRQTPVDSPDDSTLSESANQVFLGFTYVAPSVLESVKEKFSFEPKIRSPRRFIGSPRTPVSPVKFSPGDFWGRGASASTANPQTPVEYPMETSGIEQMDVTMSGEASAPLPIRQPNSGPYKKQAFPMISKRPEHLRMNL
Description: Inhibition of Ribosomal protein S6 kinase 1 (S6K1) at 50 uM

[6] = target: T1, AMP-activated protein kinase, AMPK (Homo sapiens); test: Residual activity of AMP-activated Protein Kinase (AMPK) at 50 uM
[7] = target: T4, Serine/threonine-protein kinase Sgk1 (Homo sapiens) (UniProt O00141); test: Residual activity of Serum/glucocorticoid regulated kinase (SGK) at 50 uM
T4 sequence (whole entry): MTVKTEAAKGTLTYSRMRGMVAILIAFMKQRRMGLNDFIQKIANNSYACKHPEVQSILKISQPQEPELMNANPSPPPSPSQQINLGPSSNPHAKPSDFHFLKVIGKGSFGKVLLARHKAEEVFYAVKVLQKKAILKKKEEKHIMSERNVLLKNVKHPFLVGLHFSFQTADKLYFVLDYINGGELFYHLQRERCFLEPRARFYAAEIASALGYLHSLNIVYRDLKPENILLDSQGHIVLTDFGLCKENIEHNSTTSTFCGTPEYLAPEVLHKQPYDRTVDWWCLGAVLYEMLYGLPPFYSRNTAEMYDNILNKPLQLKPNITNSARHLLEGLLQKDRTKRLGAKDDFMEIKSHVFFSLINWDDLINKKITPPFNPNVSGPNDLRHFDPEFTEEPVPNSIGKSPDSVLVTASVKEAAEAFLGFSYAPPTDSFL

[8] = target: Ribosomal protein S6 kinase alpha-3 (Homo sapiens) (UniProt P51812); test: Residual activity of Ribosomal S6 kinase 2 (RSK2) at 50 uM
[9] = target: Glycogen synthase kinase-3 beta (Homo sapiens) (UniProt P49841); test: Residual activity of Glycogen synthase kinase-3 beta (GSK3-beta) at 50 uM
[10] = target: T3, Ribosomal protein S6 kinase beta-1; test: Inhibition of Ribosomal protein S6 kinase 1 (S6K1)
Target sequence in this assay (P23443 whole entry): as the sequence (P23443 whole entry, looked up) above

[11] = target: Ribosomal protein S6 kinase alpha-5 (Homo sapiens) (UniProt O75582); test: Residual activity of MSK-1 kinase (MSK1) at 50 uM
Chain of Ribosomal protein S6 kinase alpha-5 (Homo sapiens) (O75582 whole entry, looked up): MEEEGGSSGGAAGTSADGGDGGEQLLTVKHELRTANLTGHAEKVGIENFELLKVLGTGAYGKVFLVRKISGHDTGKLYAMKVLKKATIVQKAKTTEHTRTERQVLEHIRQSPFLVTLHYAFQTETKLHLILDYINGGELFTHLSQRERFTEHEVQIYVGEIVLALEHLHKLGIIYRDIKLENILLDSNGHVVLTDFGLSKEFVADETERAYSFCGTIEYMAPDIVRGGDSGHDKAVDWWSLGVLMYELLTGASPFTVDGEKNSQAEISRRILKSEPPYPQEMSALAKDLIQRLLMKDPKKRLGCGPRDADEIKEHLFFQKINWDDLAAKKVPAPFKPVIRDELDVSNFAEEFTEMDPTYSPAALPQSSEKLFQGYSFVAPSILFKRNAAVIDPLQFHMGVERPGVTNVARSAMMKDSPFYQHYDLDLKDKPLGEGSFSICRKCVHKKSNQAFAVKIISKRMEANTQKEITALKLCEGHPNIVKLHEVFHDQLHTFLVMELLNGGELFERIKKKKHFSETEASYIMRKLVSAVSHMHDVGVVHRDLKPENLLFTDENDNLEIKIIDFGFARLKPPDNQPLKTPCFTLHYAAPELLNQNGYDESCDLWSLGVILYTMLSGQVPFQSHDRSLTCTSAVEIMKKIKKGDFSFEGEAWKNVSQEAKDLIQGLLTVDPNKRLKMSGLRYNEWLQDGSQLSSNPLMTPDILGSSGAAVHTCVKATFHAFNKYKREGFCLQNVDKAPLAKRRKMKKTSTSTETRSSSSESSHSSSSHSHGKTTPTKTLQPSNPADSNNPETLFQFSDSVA

Chain of Ribosomal protein S6 kinase alpha-3 (Homo sapiens) (P51812 whole entry): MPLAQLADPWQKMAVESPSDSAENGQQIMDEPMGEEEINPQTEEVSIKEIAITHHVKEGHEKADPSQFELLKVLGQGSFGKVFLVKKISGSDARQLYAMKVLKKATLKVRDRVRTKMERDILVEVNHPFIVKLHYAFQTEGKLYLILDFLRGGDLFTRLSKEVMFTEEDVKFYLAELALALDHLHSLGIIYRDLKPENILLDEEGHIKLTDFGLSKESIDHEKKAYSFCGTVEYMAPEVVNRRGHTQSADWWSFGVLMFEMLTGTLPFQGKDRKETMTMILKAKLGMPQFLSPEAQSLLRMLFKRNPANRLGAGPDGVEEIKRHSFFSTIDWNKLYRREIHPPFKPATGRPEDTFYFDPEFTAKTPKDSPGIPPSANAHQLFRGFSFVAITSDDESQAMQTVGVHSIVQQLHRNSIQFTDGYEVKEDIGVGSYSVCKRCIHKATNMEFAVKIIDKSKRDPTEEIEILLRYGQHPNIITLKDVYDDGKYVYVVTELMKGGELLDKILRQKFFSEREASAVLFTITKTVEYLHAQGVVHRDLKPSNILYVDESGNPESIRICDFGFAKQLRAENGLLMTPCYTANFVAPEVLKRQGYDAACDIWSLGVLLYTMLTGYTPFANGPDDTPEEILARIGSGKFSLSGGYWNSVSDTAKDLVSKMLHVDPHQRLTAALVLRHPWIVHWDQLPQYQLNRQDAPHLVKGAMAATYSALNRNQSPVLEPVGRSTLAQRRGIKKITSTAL
Chain of Glycogen synthase kinase-3 beta (Homo sapiens) (P49841 whole entry, looked up): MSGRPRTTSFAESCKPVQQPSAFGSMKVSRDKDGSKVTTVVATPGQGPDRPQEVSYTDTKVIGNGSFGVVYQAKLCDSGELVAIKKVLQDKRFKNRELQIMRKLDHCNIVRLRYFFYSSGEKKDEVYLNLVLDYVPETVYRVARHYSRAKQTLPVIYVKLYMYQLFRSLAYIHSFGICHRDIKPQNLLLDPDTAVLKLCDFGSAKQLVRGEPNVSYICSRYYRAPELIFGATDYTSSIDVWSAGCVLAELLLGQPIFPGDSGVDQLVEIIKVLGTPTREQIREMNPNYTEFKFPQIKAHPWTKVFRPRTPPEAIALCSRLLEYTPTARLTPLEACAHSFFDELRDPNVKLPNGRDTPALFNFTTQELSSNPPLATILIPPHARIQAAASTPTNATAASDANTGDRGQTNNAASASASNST

residual activity [1] [%] | residual activity [2] [%] | residual activity [3] [%] | residual activity [4] [%] | residual activity [5] [%] | residual activity [6] [%] | residual activity [7] [%] | residual activity [8] [%] | residual activity [9] [%] | IC50 [10] [µM] | residual activity [11] [%] | SMILES
9 | 54 |  |  |  |  |  |  |  |  |  | CN(C)CCCn1cc(C2=C(c3c[nH]c4ccccc34)C(=O)NC2=O)c2ccccc21
 |  | 93 | 66 | 28 | 88 | 109 | 106 | 94 | 25 | 90 | CN1C(=O)C(c2c[nH]c3ccccc23)=C(c2cn(CCCN)c3ccccc23)C1=O
